Earlier results as cited in US20080242727A1, “DIETARY COMPOSITIONS CONTAINING ALPHA AMINO N-BUTYRATE AND METHODS OF ENHANCING LEAN BODY MASS” (priority 2007, published 2008).

Key:
erythroid progenitors = settings: in vivo or in culture
[1] = test system: hemidiaphragms from fed or fasted rats; settings: in vitro; for specific activity of muscle proteins (protein synthesis): [14C]lysine, with or without insulin
[2] = test system: protein synthesis in skeletal muscle; settings: for protein synthesis in skeletal muscle of food-deprived rats: oral administration, vs saline-treated controls
rat liver proteolysis = settings: out of 12 amino acids tested; only at concentrations much higher than physiological
[3] = test system: hearts perfused with buffer; settings: for negative nitrogen balance: buffer with glucose and normal plasma levels of other amino acids, except BCAA
[4] = dose of as little as 3 g/day

## CCC(N)C(=O)O (stereo not drawn) [ABA, alpha amino n-butyrate]
Erythroid progenitors
  growth of erythroid progenitors: stimulated the growth of all classes of erythroid progenitors

## CC(C)C[C@H](N)C(=O)O [Leucine, L-Leucine]
[1]
  protein degradation: prohibited protein degradation
  specific activity of muscle proteins (protein synthesis): increased
[2]; independently of increases in serum insulin
  protein synthesis / eIF4F formation: stimulated protein synthesis by enhancing eukaryotic initiation factor (eIF)4F formation
[2]
  protein synthesis in skeletal muscle of food-deprived rats: stimulated protein synthesis
[2]; oral gavage to rats after exercise
  muscle synthesis after exercise: stimulated muscle synthesis independent of increased plasma insulin
[2]; oral, rats
  glucocorticoid-induced decreases in protein synthesis and mRNA translation: restored
Rat liver proteolysis
  inhibition of deprivation-induced rat liver proteolysis: strongest inhibitor
[3]
  negative nitrogen balance: decreased the negative nitrogen balance
[3]; leucine concentrations giving maximal inhibition of protein degradation
  rate of protein synthesis as % of the rate of proteolysis: 50%

## CC(C)(O)CC(=O)O [HMB, b-hydroxy b-methylbutyrate]
[4]
  effect on catabolism, lean muscle mass and recuperation: anti-catabolic, promotes lean muscle mass, and may speed recuperation

## CC(C)[C@H](N)C(=O)O [valine]
[1]
  specific activity of muscle proteins (protein synthesis): no effect
[2]
  protein synthesis in skeletal muscle of food-deprived rats: ineffective
[3]
  negative nitrogen balance: not

## CC[C@H](C)[C@H](N)C(=O)O [isoleucine]
[1]
  specific activity of muscle proteins (protein synthesis): inhibitory effects
[2]
  protein synthesis in skeletal muscle of food-deprived rats: ineffective
[3]
  negative nitrogen balance: not
